Test results as given in patent publication US9029451B2, “Waterborne coating compositions that include 2,2,4-trimethyl-3-oxopentanoate esters as reactive coalescents” (Eastman Chemical Company, priority 2010, dated 2015).
Like-named read-outs stand apart in the source and are kept apart here.

Legend:
[1] = MFFT testing, coalescing efficiency
Experimental: The MFFT samples were prepared by weighing out 20 grams (+/−0.01 g) of emulsion into 50 ml beakers. The beakers of emulsion were placed on magnetic stirrers and the coalescing aid added dropwise by pipet. The weight of the drops were determined by adding 40 drops of the coalescing aid to a tared weighing dish, then the weight per drop was calculated by taking an average of the total weight (total weight divided by 40 drops). The coalescing aid was added to the emulsion based on solids by weight. The MFFT samples were allowed to stir for approximately 15 minutes, transferred to 8 dram vials and placed onto lab rollers and allowed to equilibrate for at least 24 hours. The samples were then drawn down on the MFFT bar, which is typically set on range #2 (0° to 18° C.), and the films allowed to dry. The areas in which the films have stopped cracking are visually determined and the MFFT value is read from the scale on the instrument and converted to degrees Fahrenheit. Linear Regression was used to calculate the amount of coalescing aid required to lower the films MFFT to 40° F. In Table #5, the phr40 values (parts per hundred resin based on solids by weight) are the amount of coalescing aid required to reduce the MFFT to 40° F. A lower number indicates the coalescent is more efficient at reducing the MFFT of the film.

[2] = Density, ASTM D 1475-98; format: physicochemical
[3] = Water miscibility, % organic in water method (gravimetric); format: physicochemical; conditions: saturation point
Experimental: (§1) Water miscibility was measured by the following methods:
% Organic in Water Method:
The novel coalescent was added drop wise to 25 mL Milli-Q water and the mixture stirred at 1000 rpm for 10 minutes. If the coalescent dissolved, an additional drop or drops were added until traces of the organic solvent remained after the mixture had been stirred for 20 minutes. The percent organic solvent at the saturation point was determined gravimetrically.

[4] = Boiling point of coalescent; format: physicochemical
Experimental: The novel compounds were evaluated for their coalescing properties and compared to 2,2,4-trimethylpentane-1,3-diol monoisobutyrate (Texanol) and Optifilm Enhancer 400 (OE 400), two coalescents that are widely used in industry (Table 2).

[5] = Hydrolytic stability in latex at 120° F., pH and Brookfield viscosity; format: physicochemical
Experimental: Approximately 100 grams of either Rhoplex AC 2508 (Rohm & Haas acrylic polymer emulsion) or Rhoplex SG-10M (Rohm & Haas acrylic polymer emulsion) was weighed out into a 4 ounce jar and 10 phr (parts per hundred resin) of the coalescing aid was added (based on percent solids of the emulsion by weight). The sample was placed on lab rollers for 24 hours before the initial pH and viscosity was taken. The viscosity was measured by a Brookfield viscometer in centipoises. The sample was then placed into a lab oven at 120° F. The pH and viscosity was checked weekly for four weeks (Tables 3 & 4). Any change in the appearance of the sample such as gel particles or phase separation was recorded weekly also.

[6] = % non-volatile, 110° C. for 1 hour (ASTM D2369); format: physicochemical
Experimental: 2,2,4-trimethyl-3-oxopentanoate esters useful as reactive coalescents according to the invention include those having a weight percent volatile content of less than 50%, as measured according to ASTM Method D2369. This test may be conducted generally by heating the sample in a forced air oven at 110° C. for 60 minutes. The weight loss after the test is deemed to result from a loss of volatiles originally present in the sample; the percent volatile present in the original sample may then be calculated. Although the cited test can be conducted on coating compositions containing other components such as latex polymers, the values cited herein may be obtained from a sample of the coalescent itself. Thus, the weight percent volatile of a coalescent may be used herein as a yardstick to measure the amount of VOC the coalescent would contribute to the VOC of a coating composition.

[7] = Water miscibility, % water in solvent method (Karl Fischer); format: physicochemical; conditions: stirred approx. 48 hours
Experimental: as §1
% Water in Solvent Method:
Approximately 5-10 mL of the novel coalescent was slowly added to 10-15 mL Milli-Q water in an 8-dram vial. The mixture was slowly stirred for approximately 48 hours at 100-150 rpm. The organic layer was analyzed in triplicate for percent water by Karl Fischer methodology.

[8] = latex Acronal 296D, linear regression
[9] = latex Rhoplex HG-74P, linear regression
[10] = latex Rhoplex SG-10M, linear regression
[11] = latex Ucar 379G, linear regression
[12] = latex Ucar 626, linear regression
[13] = Rhoplex AC 2508, 10 phr coalescent, Initial
[14] = Rhoplex AC 2508, 10 phr, 120° F., 1 week
[15] = Rhoplex AC 2508, 10 phr, 120° F., 2 weeks
[16] = Rhoplex AC 2508, 10 phr, 120° F., 3 weeks
[17] = Rhoplex AC 2508, 10 phr, 120° F., 4 weeks
[18] = Rhoplex SG-10M, 10 phr coalescent, Initial
[19] = Rhoplex SG-10M, 10 phr, 120° F., 1 week
[20] = Rhoplex SG-10M, 10 phr, 120° F., 2 weeks
[21] = Rhoplex SG-10M, 10 phr, 120° F., 3 weeks
[22] = Rhoplex SG-10M, 10 phr, 120° F., 4 weeks
[23] = Rhoplex AC 2508, compared with industry standards
[24] = Rhoplex SG-10M, compared with industry standards

Density (lbs/gal) [2] | Water Miscibility % solvent in water layer [3] | Viscosity (cps) [5, 13] | pH [5, 13] | Viscosity (cps) [5, 14] | pH [5, 14] | Viscosity (cps) [5, 15] | pH [5, 15] | Viscosity (cps) [5, 16] | pH [5, 16] | Viscosity (cps) [5, 17] | pH [5, 17] | % non-volatile @ 110° C. for 1 hour [6] | Water Miscibility % water in solvent layer [7] | Boiling Point (° C. @ 760 torr) [4] | Compound | phr of Coalescent required to lower MFFT to 40° F. [1, 8] | phr of Coalescent required to lower MFFT to 40° F. [1, 9] | phr of Coalescent required to lower MFFT to 40° F. [1, 10] | phr of Coalescent required to lower MFFT to 40° F. [1, 11] | phr of Coalescent required to lower MFFT to 40° F. [1, 12] | other results
8.75 lbs/gal | 5.0% | 1430 cps | 8.3 | 1360 cps | 7.7 | 1150 cps | 7.7 | 1060 cps | 7.6 | 1070 cps | 7.4 | 10.6% | 7.6% | 254.8 °C | CC(C)C(=O)C(C)(C)C(=O)OCCO [Example 1, 2-Hydroxyethyl 2,2,4-trimethyl-3-oxopentanoate] | 4.2 phr | 8.2 phr | 4.7 phr | 1.5 phr | 6.5 phr | –
8.34 lbs/gal | 0.09% | 1510 cps | 8.5 | 1260 cps | 8.4 | 1230 cps | 8.4 | 1220 cps | 8.3 | 1130 cps | 8.3 | 47.9% | 4.0% | 291.2 °C | CC(C)C(=O)C(C)(C)C(=O)OCC(C)(C)CO [Example 2, 3-Hydroxy-2,2-dimethylpropyl 2,2,4-trimethyl-3-oxopentanoate] | 5.9 phr | 8.8 phr | 5.6 phr | 1.6 phr | 6.4 phr | hydrolytic stability, in words [5, 23]: better than the industry standards
8.13 lbs/gal | 0.07% | 1430 cps | 8.5 | 1300 cps | 8.4 | 1290 cps | 8.4 | 1250 cps | 8.4 | 1130 cps | 8.3 | 63.8% | 2.1% | 287.7 °C | CC(C)C(=O)C(C)(C)C(=O)OCC(C)(C)C(O)C(C)C (centres unmarked) [Example 3, 3-Hydroxy-2,2,4-trimethylpentyl 2,2,4-trimethyl-3-oxopentanoate] | 6.0 phr | 9.7 phr | 5.6 phr | 1.3 phr | 8.2 phr | hydrolytic stability, in words [5, 23]: better than the industry standards
8.82 lbs/gal | 0.09% | 1380 cps | 8.4 | 1200 cps | 8.3 | 1210 cps | 8.2 | 1150 cps | 8.3 | 1100 cps | 8.2 | 99.0% | 0.01% | 320.0 °C | CC(C)C(=O)C(C)(C)C(=O)OCCOCCOCCOC(=O)C(C)(C)C(=O)C(C)C [Example 4] | 5.8 phr | 9.1 phr | 6.7 phr | 1.3 phr | 7.0 phr | hydrolytic stability, in words [5, 23]: better than the industry standards; volatility, in words ([6]; compared with Texanol): almost completely nonvolatile
7.80 lbs/gal | 0.00% | – | – | – | – | – | – | – | – | – | – | 58.7% | 0.03% | 281.6 °C | CCCCC(CC)COCCOC(=O)C(C)(C)C(=O)C(C)C (centres unmarked) [Example 6, 2-(2-Ethylhexyloxy)ethyl 2,2,4-trimethyl-3-oxopentanoate] | 5.0 phr | – | 4.0 phr | 1.3 phr | – | Viscosity (cps) [5, 18]: 474 cps; pH [5, 18]: 8.6; Viscosity (cps) [5, 19]: 585 cps; pH [5, 19]: 8.4; Viscosity (cps) [5, 20]: 484 cps; pH [5, 20]: 8.8; Viscosity (cps) [5, 21]: 347 cps; pH [5, 21]: 8.8; Viscosity (cps) [5, 22]: 461 cps; pH [5, 22]: 8.4; hydrolytic stability, in words [5, 24]: better than the industry standards

Compound | Density (lbs/gal) [2] | Water Miscibility % solvent in water layer [3] | Viscosity (cps) [5, 13] | pH [5, 13] | Viscosity (cps) [5, 14] | pH [5, 14] | Viscosity (cps) [5, 15] | pH [5, 15] | Viscosity (cps) [5, 16] | pH [5, 16] | Viscosity (cps) [5, 17] | pH [5, 17] | % non-volatile @ 110° C. for 1 hour [6] | Water Miscibility % water in solvent layer [7] | Boiling Point (° C. @ 760 torr) [4] | phr of Coalescent required to lower MFFT to 40° F. [1, 8] | phr of Coalescent required to lower MFFT to 40° F. [1, 9] | phr of Coalescent required to lower MFFT to 40° F. [1, 10] | phr of Coalescent required to lower MFFT to 40° F. [1, 11] | phr of Coalescent required to lower MFFT to 40° F. [1, 12] | other results
2,2,4-trimethylpentane-1,3-diol monoisobutyrate [Texanol, reference compound] | 7.92 lbs/gal | 0.1% | 905 cps | 8.2 | 685 cps | 7.9 | 665 cps | 8.0 | 631 cps | 7.8 | 638 cps | 7.9 | 0.0% | 3.0% | – | 4.7 phr | 8.3 phr | 4.6 phr | 0.1 phr | 6.2 phr | Boiling Point (° C. @ 760 torr) ([4]; @ 760 torr): 255.0 °C; Viscosity (cps) [5, 18]: 544 cps; pH [5, 18]: 8.7; Viscosity (cps) [5, 19]: 554 cps; pH [5, 19]: 8.5; Viscosity (cps) [5, 20]: 484 cps; pH [5, 20]: 8.8; Viscosity (cps) [5, 21]: 474 cps; pH [5, 21]: 8.6; Viscosity (cps) [5, 22]: 471 cps; pH [5, 22]: 8.3
CCCCOCCOCCOC(=O)C(C)(C)C(=O)C(C)C [Example 5, 2-(2-Butoxyethoxy)ethyl 2,2,4-trimethyl-3-oxopentanoate] | 8.02 lbs/gal | 0.02% | – | – | – | – | – | – | – | – | – | – | 64.0% | 0.40% | 272.1 °C | 4.2 phr | – | 4.6 phr | 0.9 phr | – | Viscosity (cps) [5, 18]: 548 cps; pH [5, 18]: 8.6; Viscosity (cps) [5, 19]: 631 cps; pH [5, 19]: 8.3; Viscosity (cps) [5, 20]: 461 cps; pH [5, 20]: 8.7; Viscosity (cps) [5, 21]: 458 cps; pH [5, 21]: 8.6; Viscosity (cps) [5, 22]: 511 cps; pH [5, 22]: 8.2; hydrolytic stability, in words [5, 24]: better than the industry standards
